We go through 20 compounds from US20240368153A1, “Aminopyridine-based MTA-Cooperative PRMT5 Inhibitors” (Mirati Therapeutics, Inc., priority 2021, published 2024).

Assay [1] concerns the target recombinant human dual expressed Avi PRMT5/His-MEP50 protein (Homo sapiens (Human), UniProt O14744). As to the kind of experiment: HTRF binding assay in presence of MTA. To be noted: 30 μM MTA. On the procedure:
The PRMT5 binding activity of compounds of the present invention was determined using an HTRF binding assay or SPR assay.
A recombinant human dual expressed Avi PRMT5/His-MEP50) protein (corresponding to amino acids for PRMT5 2-637, and 2-342 for MEP50 expressed in baculovirus) was incubated with target fragments in final buffer (25 mM ADA pH 7.2, 30 μM MTA, 1 mM TCEP, 50 mM NaCl, 0.002% Tween, 5 nM proprietary Tracer binding compound prepared in-house), overnight at 2-8° C. After overnight incubation the binding is monitored after the addition of 0.5 nM Anti-His-Tb (Cisbio) after 1 hr incubation at RT (˜20-24 hrs total binding time). The HTRF signal was measured using a Clariostar reader (BMG) excitation filter (Ex Tr), dichroic filter (LP TP) and emission filters (F 665-10 and F 620-10) manufacturer's instructions. The HTRF ratio was calculated using the formula: [emission 665/emission 620]*10000.

For assay [2], the target named is PRMT5•MTA (biotinylated PRMT5-MEP50) (Homo sapiens (Human), UniProt O14744). As to the kind of experiment: SPR binding assay, MTA running buffer. To be noted: 20 μM MTA running buffer. On the procedure: (§1) SPR screening was performed in MTA running buffer (25 mM Bicine pH 7.6, 100 mM NaCl, 1 mM TCEP, 20 μM MTA, 0.05% Tween-20 and 2% DMSO). The biotinylated PRMT5-MEP50 surface was equilibrated with MTA running buffer for 12 hours prior to the start. […] Subsequently, compound titration was repeated in SAM-running buffer (25 mM Bicine pH 7.6, 100 mM NaCl, 1 mM TCEP, 20 μM SAM, 0.05% Tween-20, and 2% DMSO). […] After double referencing, the steady-state response was extracted for each fragment concentration and was fit to the Langmuir isotherm equation to determine the equilibrium dissociation constant (KD).

A further assay has as its target PRMT5/MEP50 complex (Homo sapiens (Human), UniProt O14744). As to the kind of experiment: PRMT5:MEP50 FlashPlate Assay. The assay is classed as biochemical. On the procedure: The PRMT5 inhibitory activity of compounds of the present invention was determined using a PRMT5:MEP50 FlashPlate Assay (Reaction Biology Corporation).
The assay uses purified human, PRMT5 enzyme to convert S-adenosyl-L-[methyl-^3H]methionine plus histone H4 L-arginine to S-adenosyl-L-homocysteine plus histone H4 [methyl-^3H]-L-arginine. The assay was carried out using Streptavidin-coated FlashPlates (Perkin Elmer), which contained a scintillant embedded in the plastic of the plate. The histone H4 peptide substrate was conjugated with biotin, which binds to the streptavidin-coated well of the plate, placing the H4 peptide in close proximity to the side well and the scintillant. The transfer of the tritiated methyl group from S-adenosyl-L-[methyl-^3H]methionine to the bound histone H4 peptide generated a radiolabeled histone H4, which was quantitated by measuring in a scintillation counter to determine the activity of PRMT5 enzyme in the presence and absence of compound. […] Briefly, compounds of the present invention were solubilized in 100% DMSO at a highest concentration of 10 mM. For IC, determinations, the initial starting concentration for the serial dilutions of each compound was 50 μM. Control samples lacking compound, PRMT5/MEP50 complex or various reaction components also were prepared and processed in parallel with compound test samples. SAH was used as a positive control for assay validation. To measure PRMT5 inhibitory activity, 3 nM PRMT5/MEP50 complex (Reaction Biology Corporation) was preincubated with test compound in assay buffer containing 40 nM histone H4 peptide (amino acids 1-15)-Biotin conjugate for 20 min at room temperature. The enzymatic reaction was initiated by adding 1 μM tritiated S-adenosyl methionine (final concentration) and the reaction is allowed to proceed for 20 min. The reaction was stopped and the amount of bound, tritiated H4 peptide in each sample was determined using a scintillation counter. The IC50 value for each compound was calculated from each 10-point dose-response curve for samples plus and minus MTA using GraphPad Prism software and the results for exemplary compounds of Formula (I) is shown in Table 9a.

Assay [3] has as its target PRMT5•SAM (biotinylated PRMT5-MEP50) (Homo sapiens (Human), UniProt O14744). As to the kind of experiment: SPR binding assay, SAM running buffer. To be noted: 20 μM SAM running buffer. On the procedure:
as §1

[4] abbreviates: histone H4 peptide, absence of MTA, read-out: IC50.
[5] abbreviates: read-out: IC50 + 2 μM MTA, histone H4 peptide, presence of 2 μM MTA.

pIC50, pKd: −log10 of the molar value. Where two headings read alike, the source gives them in different places.

PRMT5•SAM (biotinylated PRMT5-MEP50), sequence (O14744 whole entry): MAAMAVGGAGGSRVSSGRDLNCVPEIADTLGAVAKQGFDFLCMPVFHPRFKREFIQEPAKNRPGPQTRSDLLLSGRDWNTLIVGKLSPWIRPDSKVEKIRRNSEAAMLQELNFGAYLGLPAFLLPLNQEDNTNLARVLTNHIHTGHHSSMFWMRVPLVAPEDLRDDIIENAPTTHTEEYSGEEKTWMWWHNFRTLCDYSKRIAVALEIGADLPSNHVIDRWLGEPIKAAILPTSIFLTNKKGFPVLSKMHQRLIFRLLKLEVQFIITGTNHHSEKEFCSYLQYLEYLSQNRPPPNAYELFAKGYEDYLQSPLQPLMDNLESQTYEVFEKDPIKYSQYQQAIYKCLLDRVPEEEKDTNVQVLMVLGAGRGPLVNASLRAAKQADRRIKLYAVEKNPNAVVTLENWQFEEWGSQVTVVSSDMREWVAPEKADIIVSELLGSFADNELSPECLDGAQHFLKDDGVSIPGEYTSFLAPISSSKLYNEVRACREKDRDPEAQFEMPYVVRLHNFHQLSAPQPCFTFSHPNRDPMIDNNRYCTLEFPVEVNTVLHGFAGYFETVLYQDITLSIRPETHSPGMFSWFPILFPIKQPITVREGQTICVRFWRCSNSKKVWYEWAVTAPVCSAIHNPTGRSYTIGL
PRMT5•SAM (biotinylated PRMT5-MEP50), sequence (Q9BQA1 whole entry partner): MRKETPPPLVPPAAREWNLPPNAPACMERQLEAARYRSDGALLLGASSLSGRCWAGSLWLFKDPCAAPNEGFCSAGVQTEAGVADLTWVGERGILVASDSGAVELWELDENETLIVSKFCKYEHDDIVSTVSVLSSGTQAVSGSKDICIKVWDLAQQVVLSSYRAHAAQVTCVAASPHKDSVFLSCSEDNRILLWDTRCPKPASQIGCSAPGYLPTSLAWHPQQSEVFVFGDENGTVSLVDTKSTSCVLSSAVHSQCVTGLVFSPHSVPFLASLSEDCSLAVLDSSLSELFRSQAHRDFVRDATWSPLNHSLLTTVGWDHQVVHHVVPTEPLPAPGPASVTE
PRMT5•MTA (biotinylated PRMT5-MEP50), sequence (O14744 whole entry, the tested form may be a part): as the sequence (O14744 whole entry) above
PRMT5•MTA (biotinylated PRMT5-MEP50), sequence (Q9BQA1 whole entry partner, the tested form may be a part): as the sequence (Q9BQA1 whole entry partner) above
PRMT5/MEP50 complex, sequence (O14744 whole entry): as the sequence (O14744 whole entry) above
PRMT5/MEP50 complex, sequence (Q9BQA1 whole entry partner): as the sequence (Q9BQA1 whole entry partner) above
recombinant human dual expressed Avi PRMT5/His-MEP50 protein, sequence (O14744 2-637): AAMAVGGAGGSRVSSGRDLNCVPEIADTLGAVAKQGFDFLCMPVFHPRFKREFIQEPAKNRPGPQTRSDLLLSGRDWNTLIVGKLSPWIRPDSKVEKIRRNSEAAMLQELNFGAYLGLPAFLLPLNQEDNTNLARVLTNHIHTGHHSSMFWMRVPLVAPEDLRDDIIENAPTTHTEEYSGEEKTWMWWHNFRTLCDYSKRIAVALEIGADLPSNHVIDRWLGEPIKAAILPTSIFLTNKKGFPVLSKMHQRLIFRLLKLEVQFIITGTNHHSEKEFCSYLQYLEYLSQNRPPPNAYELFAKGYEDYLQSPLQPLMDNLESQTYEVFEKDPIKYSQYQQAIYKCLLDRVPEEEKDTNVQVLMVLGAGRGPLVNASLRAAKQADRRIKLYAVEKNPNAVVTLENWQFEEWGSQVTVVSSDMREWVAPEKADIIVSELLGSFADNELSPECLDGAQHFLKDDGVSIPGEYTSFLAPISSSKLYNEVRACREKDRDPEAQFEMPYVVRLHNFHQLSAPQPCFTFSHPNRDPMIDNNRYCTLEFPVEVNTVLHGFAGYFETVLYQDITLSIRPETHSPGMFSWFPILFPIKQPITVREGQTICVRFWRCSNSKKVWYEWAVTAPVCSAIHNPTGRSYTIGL
recombinant human dual expressed Avi PRMT5/His-MEP50 protein, sequence (Q9BQA1 2-342 partner): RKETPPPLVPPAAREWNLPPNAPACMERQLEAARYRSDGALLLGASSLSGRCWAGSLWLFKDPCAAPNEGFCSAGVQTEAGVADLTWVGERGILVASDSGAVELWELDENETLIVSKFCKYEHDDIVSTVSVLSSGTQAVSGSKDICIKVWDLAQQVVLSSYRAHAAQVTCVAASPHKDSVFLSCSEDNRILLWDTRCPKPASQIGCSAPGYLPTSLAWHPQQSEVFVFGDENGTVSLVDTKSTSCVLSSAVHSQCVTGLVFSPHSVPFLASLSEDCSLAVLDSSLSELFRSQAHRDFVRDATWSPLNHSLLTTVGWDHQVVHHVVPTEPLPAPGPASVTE

On to `Cc1cc(N)nc2cc(-c3cnsc3)cnc12` [Example 1-8, 7-(isothiazol-4-yl)-4-methyl-1,5-naphthyridin-2-amine], for which the pIC50 in assay [1] was 4.94; on PRMT5/MEP50 complex (setting [4]) it was < 3.52; at PRMT5/MEP50 complex (setting [5]) it was < 3.52. The pKd in assay [2] is 5.12; in assay [3], 4.72.
For `Cc1cc(N)nc2cc(Cc3ccccc3Cl)cnc12` [Example 2-3, 7-(2-chlorobenzyl)-4-methyl-1,5-naphthyridin-2-amine], the negative logarithm of the IC50 (pIC50) in assay [1] is 5.88; on PRMT5/MEP50 complex (setting [4]) it was < 3.52; on PRMT5/MEP50 complex (setting [5]), < 3.52. Besides, the negative logarithm of the Kd (pKd) was 5.33 in assay [2] and 4.50 in assay [3].
Take `Cc1cc(N)nc2cc(Cc3ccccc3C#N)cnc12` [Example 2-4, 2-((6-amino-8-methyl-1,5-naphthyridin-3-yl)methyl)benzonitrile]: the pIC50 in assay [1] is 6.00; at PRMT5/MEP50 complex (setting [4]) it was < 3.52; on PRMT5/MEP50 complex (setting [5]) it was < 3.52. Besides, the negative-log Kd (pKd) was 6.06 in assay [2] and 5.51 in assay [3].
For `Cc1cc(N)nc2cc(Cc3cnn(C)c3)cnc12` [Example 2-9, 4-methyl-7-[(1-methylpyrazol-4-yl)methyl]-1,5-naphthyridin-2-amine], the figures for the pIC50 (in assay [1]; on PRMT5/MEP50 complex (setting [4]); at PRMT5/MEP50 complex (setting [5])) were 6.69, 3.61 and 4.77, respectively. Further, the negative-log Kd (pKd) was 6.86 in assay [2] and 6.13 in assay [3].
The like results for `Cc1cc(N)nc2ccc(-c3ccccc3F)nc12` [Example 4-7, 6-(2-fluorophenyl)-4-methyl-1,5-naphthyridin-2-amine] were, in that order, 4.99, < 3.52, < 3.52, 4.50 and 4.09.
As for `Cc1cc(N)nc2cc(CNC(=O)c3ccccc3)cnc12` [Example 7-1, N-[(6-amino-8-methyl-1,5-naphthyridin-3-yl)methyl]benzamide], the pIC50 in assay [1] was 6.80; on PRMT5/MEP50 complex (setting [4]) it was 4.20; at PRMT5/MEP50 complex (setting [5]), 5.25. Besides, the negative logarithm of the Kd (pKd) in assay [2] was 7.03; in assay [3], 6.40.
As for `Cc1cc(N)nc2cc(CNC(=O)c3ccncn3)cnc12` [Example 7-2, N-[(6-amino-8-methyl-1,5-naphthyridin-3-yl)methyl]pyrimidine-4-carboxamide], the pIC50 in assay [1] is 6.50; at PRMT5/MEP50 complex (setting [4]), < 4.00; on PRMT5/MEP50 complex (setting [5]), 4.66. The pKd is 6.82 in assay [2] and 5.65 in assay [3].
In the case of `Cc1cc(N)nc2cc(CNC(=O)c3cc(O)ncn3)cnc12` [Example 7-3, N-[(6-amino-8-methyl-1,5-naphthyridin-3-yl)methyl]-6-hydroxy-pyrimidine-4-carboxamide], the results for the pIC50 (in assay [1]; on PRMT5/MEP50 complex (setting [4]); at PRMT5/MEP50 complex (setting [5])) were 5.98, < 4.00 and 4.22, respectively. Besides, the pKd is 6.17 in assay [2] and 4.90 in assay [3].
For `Cc1cc(N)nc2cc(CNC(=O)c3cc(NC4CC4)ncn3)cnc12` [Example 7-4, N-[(6-amino-8-methyl-1,5-naphthyridin-3-yl)methyl]-6-(cyclopropylamino)pyrimidine-4-carboxamide], the figures for the negative-log IC50 (pIC50) (in assay [1]; at PRMT5/MEP50 complex (setting [4]); on PRMT5/MEP50 complex (setting [5])) were 7.54, 4.74 and 5.78, respectively. Also, the pKd in assay [2] is 7.66; in assay [3], 7.09.
With `Cc1cc(N)nc2cc(CN3C(=O)c4ccccc4C3=O)cnc12` [Example 7-6, 2-[(6-amino-8-methyl-1,5-naphthyridin-3-yl)methyl]isoindoline-1,3-dione], the figures for the pIC50 (in assay [1]; at PRMT5/MEP50 complex (setting [4]); on PRMT5/MEP50 complex (setting [5])) were 7.68, < 3.52 and 6.13, respectively. Besides, the pKd in assay [2] was 7.92; in assay [3], 6.98.
The matching figures for `Cc1cc(N)nc2cc(CNC(=O)c3ccccc3)cnc12` [Example 8-1, N-[(6-amino-8-methyl-1,5-naphthyridin-3-yl)methyl]benzamide]: 8.05, 5.37, 6.38, 8.30 and 7.48.
As for `Nc1nc2cc(CNC(=O)c3ccncn3)[nH]c2cc1Br` [Example 8-2, N-[(5-amino-6-bromo-1H-pyrrolo[3,2-b]pyridin-2-yl)methyl]pyrimidine-4-carboxamide], the pIC50 in assay [1] is 7.89; at PRMT5/MEP50 complex (setting [4]), 5.24; on PRMT5/MEP50 complex (setting [5]) it was 6.44. Also, the negative-log Kd (pKd) in assay [2] is 8.05; in assay [3] it was 6.86.
For `Cc1cc2[nH]ccc2nc1N` [Example 9-1, 6-methyl-1H-pyrrolo[3,2-b]pyridin-5-amine], the values for the negative logarithm of the IC50 (pIC50) (in assay [1]; on PRMT5/MEP50 complex (setting [4]); at PRMT5/MEP50 complex (setting [5])) were 5.66, 3.73 and 4.55, respectively. In addition, the pKd in assay [2] was 6.34; in assay [3], 5.47.
In the case of `Nc1nc2cc[nH]c2cc1C1CC1` [Example 9-2, 6-cyclopropyl-1H-pyrrolo[3,2-b]pyridin-5-amine], the negative-log IC50 (pIC50) was 4.61 in assay [1], 3.63 on PRMT5/MEP50 complex (setting [4]) and 4.01 on PRMT5/MEP50 complex (setting [5]). In addition, the negative-log Kd (pKd) in assay [2] was 5.49; in assay [3], 4.71.
As to `Nc1nc2cc[nH]c2cc1C(F)(F)F` [Example 9-3, 6-(trifluoromethyl)-1H-pyrrolo[3,2-b]pyridin-5-amine], the values for the pIC50 (in assay [1]; on PRMT5/MEP50 complex (setting [4]); on PRMT5/MEP50 complex (setting [5])) were 4.69, 3.37 and 3.68, respectively. Moreover, the pKd is 4.93 in assay [2] and 4.53 in assay [3].
Take `Nc1nc2cc(NC(=O)c3ccccc3)[nH]c2cc1Br` [Example 12-1, N-(5-amino-6-bromo-1H-pyrrolo [3,2-b]pyridin-2-yl)benzamide]: the values for the negative-log IC50 (pIC50) (in assay [1]; on PRMT5/MEP50 complex (setting [4]); at PRMT5/MEP50 complex (setting [5])) were 5.85, < 4.00 and < 4.00, respectively. In addition, the values for the negative-log Kd (pKd) in assay [2] and in assay [3] were 5.60 and 5.20, respectively.
Turning to `Nc1nc2cc(NC(=O)c3ccccc3F)[nH]c2cc1Br` [Example 12-4, N-(5-amino-6-bromo-1H-pyrrolo[3,2-b]pyridin-2-yl)-2-fluoro-benzamide], the negative-log IC50 (pIC50) in assay [1] is 5.79; at PRMT5/MEP50 complex (setting [4]), 4.00; at PRMT5/MEP50 complex (setting [5]), 4.31. Moreover, the negative-log Kd (pKd) in assay [2] is 5.72; in assay [3], 5.31.
For the compound `Cc1cc2[nH]c(-n3cncn3)cc2nc1N` [Example 13-1, 6-methyl-2-(1,2,4-triazol-1-yl)-1H-pyrrolo[3,2-b]pyridin-5-amine], the pIC50 in assay [1] was 5.89; on PRMT5/MEP50 complex (setting [4]) it was < 3.52; on PRMT5/MEP50 complex (setting [5]), 3.75. Besides, the results for the pKd in assay [2] and in assay [3] were 6.29 and 5.93, respectively.
Turning to `Cc1cc2[nH]c(-n3cnc(Br)c3)cc2nc1N` [Example 13-3, 2-(4-bromoimidazol-1-yl)-6-methyl-1H-pyrrolo[3,2-b]pyridin-5-amine], the pIC50 in assay [1] is 5.63; on PRMT5/MEP50 complex (IC50 + 2 μM MTA, histone H4 peptide, presence of 2 μM MTA), 3.88; on PRMT5/MEP50 complex (setting [4]) it was < 3.52. Further, the pKd in assay [2] is 6.17; in assay [3], 5.70.
For `CC(=O)N(C)Cc1cc2nc(N)c(C)cc2n1C(C)=O` [Example 15-8, N-((1-acetyl-5-amino-6-methyl-1H-pyrrolo[3,2-b]pyridin-2-yl)methyl)-N-methylacetamide], the pIC50 in assay [1] is 6.00. Besides, the pKd in assay [2] is 7.37; in assay [3], 6.47.
